Measured values from ChEMBL document CHEMBL1909046, “DrugMatrix in vitro pharmacology data”.

What was measured:
[1] = biological target: Beta-1 adrenergic receptor (Homo sapiens, UniProt P08588); assay: DRUGMATRIX: Adrenergic beta1 radioligand binding (ligand: [125I] Cyanopindolol); type: cell membranes, CHO-K1, Membrane; details: cho-k1; Not Active = under 50% inhibition at 10 µM
[2] = biological target: Beta-2 adrenergic receptor (Homo sapiens, UniProt P07550); assay: DRUGMATRIX: Adrenergic beta2 radioligand binding (ligand: [3H] CGP-12177); type: cell membranes, CHO, Membrane; details: cho; Not Active = under 50% inhibition at 10 µM
Sequence of Beta-2 adrenergic receptor (P07550 whole entry): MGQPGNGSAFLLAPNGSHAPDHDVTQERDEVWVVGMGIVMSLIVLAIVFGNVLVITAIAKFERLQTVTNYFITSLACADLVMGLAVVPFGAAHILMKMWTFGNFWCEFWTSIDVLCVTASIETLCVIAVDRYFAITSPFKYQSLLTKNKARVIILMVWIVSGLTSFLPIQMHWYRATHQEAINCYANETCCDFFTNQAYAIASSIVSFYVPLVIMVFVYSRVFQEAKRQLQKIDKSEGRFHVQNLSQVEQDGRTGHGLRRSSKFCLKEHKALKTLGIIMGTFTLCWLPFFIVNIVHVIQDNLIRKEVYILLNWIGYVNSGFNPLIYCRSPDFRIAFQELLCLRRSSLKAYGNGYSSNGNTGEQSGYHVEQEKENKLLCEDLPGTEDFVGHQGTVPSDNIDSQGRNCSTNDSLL

[3] = DRUGMATRIX: ATPase, Na+/K+ enzyme inhibition (substrate: ATP); type: tissue-based, Sus scrofa, Heart; details: Not Active = under 50% inhibition at 10 µM
[4] = DRUGMATRIX: GABAA, Muscimol, Central radioligand binding (ligand: [3H] Muscimol); type: cell membranes, Rattus norvegicus, Wistar, Brain, Membrane; details: Not Active = under 50% inhibition at 10 µM
Melanocortin receptor 4 = Melanocortin receptor 4 (Homo sapiens, UniProt P32245); type: cell membranes, Membrane; details: hek293; further: in other assays of this panel Not Active means under 50% inhibition at 10 µM
Sequence of Melanocortin receptor 4 (P32245 whole entry): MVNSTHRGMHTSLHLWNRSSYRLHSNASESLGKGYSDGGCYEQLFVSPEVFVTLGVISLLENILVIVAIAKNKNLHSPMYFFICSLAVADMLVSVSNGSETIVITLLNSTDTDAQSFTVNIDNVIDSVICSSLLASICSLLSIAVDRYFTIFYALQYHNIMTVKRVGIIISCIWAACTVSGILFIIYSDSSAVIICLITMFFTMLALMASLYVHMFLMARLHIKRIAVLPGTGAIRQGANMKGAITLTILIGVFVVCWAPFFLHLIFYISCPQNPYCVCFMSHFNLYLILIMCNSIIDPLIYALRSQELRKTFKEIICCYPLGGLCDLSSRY

Melanocortin receptor 5 = Melanocortin receptor 5 (Homo sapiens, UniProt P33032); type: cell membranes, HEK293, Membrane; details: hek293; further: in other assays of this panel Not Active means under 50% inhibition at 10 µM
Sequence of Melanocortin receptor 5 (P33032 whole entry): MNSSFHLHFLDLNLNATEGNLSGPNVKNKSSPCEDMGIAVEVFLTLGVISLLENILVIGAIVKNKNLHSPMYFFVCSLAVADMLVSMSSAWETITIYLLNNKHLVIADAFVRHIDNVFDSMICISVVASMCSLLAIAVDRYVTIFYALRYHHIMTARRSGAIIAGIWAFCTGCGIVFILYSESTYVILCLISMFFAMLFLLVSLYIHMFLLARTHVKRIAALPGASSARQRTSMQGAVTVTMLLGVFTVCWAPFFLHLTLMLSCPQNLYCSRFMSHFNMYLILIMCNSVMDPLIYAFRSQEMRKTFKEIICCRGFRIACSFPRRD

[5] = biological target: cGMP-specific 3',5'-cyclic phosphodiesterase (Homo sapiens, UniProt O76074); assay: DRUGMATRIX: Phosphodiesterase PDE5 enzyme inhibition (substrate: [3H]cGMP + cGMP); type: tissue-based, Platelet; details: platelet; Not Active = under 50% inhibition at 10 µM
Cytochrome P450 2A6 = biological target: T1, Cytochrome P450 2A6 (Homo sapiens, UniProt P11509); details: bti-tn-5b1-4; further: in other assays of this panel Not Active means under 50% inhibition at 10 µM
T1 sequence (P11509 whole entry): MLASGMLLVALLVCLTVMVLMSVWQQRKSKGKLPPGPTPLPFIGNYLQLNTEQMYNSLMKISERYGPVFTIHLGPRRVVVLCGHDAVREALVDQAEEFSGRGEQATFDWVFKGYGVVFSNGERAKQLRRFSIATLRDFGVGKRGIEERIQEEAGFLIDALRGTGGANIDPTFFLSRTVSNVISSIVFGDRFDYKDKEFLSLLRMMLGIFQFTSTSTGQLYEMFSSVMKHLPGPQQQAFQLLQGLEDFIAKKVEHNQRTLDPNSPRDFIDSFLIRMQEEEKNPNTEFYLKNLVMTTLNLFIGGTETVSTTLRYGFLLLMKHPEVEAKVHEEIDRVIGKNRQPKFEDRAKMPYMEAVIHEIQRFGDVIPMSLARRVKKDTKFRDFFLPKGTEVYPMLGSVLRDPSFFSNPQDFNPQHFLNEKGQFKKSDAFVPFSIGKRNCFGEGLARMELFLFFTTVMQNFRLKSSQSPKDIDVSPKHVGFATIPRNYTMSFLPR

Sequence of Beta-1 adrenergic receptor (P08588 whole entry): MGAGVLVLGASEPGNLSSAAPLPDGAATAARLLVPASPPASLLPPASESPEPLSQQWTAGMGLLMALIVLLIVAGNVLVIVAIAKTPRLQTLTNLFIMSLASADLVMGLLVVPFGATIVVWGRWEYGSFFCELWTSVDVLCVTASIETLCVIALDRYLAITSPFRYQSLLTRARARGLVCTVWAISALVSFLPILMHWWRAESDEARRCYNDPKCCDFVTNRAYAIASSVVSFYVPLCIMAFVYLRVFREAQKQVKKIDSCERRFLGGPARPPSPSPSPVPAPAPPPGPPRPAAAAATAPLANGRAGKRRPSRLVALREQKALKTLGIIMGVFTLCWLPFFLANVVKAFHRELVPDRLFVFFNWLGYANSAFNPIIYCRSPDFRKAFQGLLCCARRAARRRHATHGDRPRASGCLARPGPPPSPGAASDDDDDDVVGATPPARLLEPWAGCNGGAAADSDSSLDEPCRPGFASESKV

Oc1ccccc1 [PHENOL]
Not Active: IC50 [1] | IC50 [2] | IC50 [3] | Ki [3] | IC50 [4] | Ki [4] | IC50 (Melanocortin receptor 4) | IC50 (Melanocortin receptor 5) | IC50 [5] | IC50 (Cytochrome P450 2A6) | Ki (Cytochrome P450 2A6)

COc1cc(NC(C)CCCN)c2ncccc2c1 (stereo not drawn) [PRIMAQUINE]
Not Active: IC50 [1] | IC50 [2] | IC50 [3] | Ki [3] | IC50 [4] | Ki [4] | IC50 (Melanocortin receptor 4) | IC50 (Melanocortin receptor 5) | IC50 [5] | IC50 (Cytochrome P450 2A6) | Ki (Cytochrome P450 2A6)

CC(C)(c1ccc(O)cc1)c1ccc(O)cc1 [BISPHENOL A]
Not Active: IC50 [1] | IC50 [2] | IC50 [3] | Ki [3] | IC50 [4] | Ki [4] | IC50 (Melanocortin receptor 4) | IC50 (Melanocortin receptor 5) | IC50 [5] | IC50 (Cytochrome P450 2A6) | Ki (Cytochrome P450 2A6)

CC[C@H]1OC(=O)[C@H](C)[C@@H](O[C@H]2C[C@@](C)(OC)[C@@H](O)[C@H](C)O2)[C@H](C)[C@@H](O[C@@H]2O[C@H](C)C[C@H](N(C)C)[C@H]2O)[C@](C)(O)C[C@@H](C)C(=O)[C@H](C)[C@@H](O)[C@]1(C)O [ERYTHROMYCIN]
Not Active: IC50 [1] | IC50 [2] | IC50 [3] | Ki [3] | IC50 [4] | Ki [4] | IC50 (Melanocortin receptor 4) | IC50 (Melanocortin receptor 5) | IC50 [5] | IC50 (Cytochrome P450 2A6) | Ki (Cytochrome P450 2A6)

C#C[C@]1(O)CC[C@H]2[C@@H]3CCC4=CC(=O)CC[C@@H]4[C@H]3CC[C@@]21C [NORETHINDRONE]
Not Active: IC50 [1] | IC50 [2] | IC50 [3] | Ki [3] | IC50 [4] | Ki [4] | IC50 (Melanocortin receptor 4) | IC50 (Melanocortin receptor 5) | IC50 [5] | IC50 (Cytochrome P450 2A6) | Ki (Cytochrome P450 2A6)

c1ccc2c(c1)Nc1ccccc1S2 [PHENOTHIAZINE]
Not Active: IC50 [1] | IC50 [2] | IC50 [3] | Ki [3] | IC50 [4] | Ki [4] | IC50 (Melanocortin receptor 4) | IC50 (Melanocortin receptor 5) | IC50 [5] | IC50 (Cytochrome P450 2A6) | Ki (Cytochrome P450 2A6)

CC(CN1c2ccccc2Sc2ccccc21)N(C)C (stereo not drawn) [PROMETHAZINE]
Not Active: IC50 [1] | IC50 [2] | IC50 [3] | Ki [3] | IC50 [4] | Ki [4] | IC50 (Melanocortin receptor 4) | IC50 (Melanocortin receptor 5) | IC50 [5] | IC50 (Cytochrome P450 2A6) | Ki (Cytochrome P450 2A6)

CCN1C[C@]2(COC)[C@H](O)C[C@H](OC)[C@@]34[C@@H]5C[C@@]6(O)[C@H](OC(=O)c7ccccc7)[C@@H]5[C@@](OC(C)=O)([C@@H]([C@H](OC)[C@H]23)[C@@H]14)[C@@H](O)[C@@H]6OC [ACONITINE]
Not Active: IC50 [1] | IC50 [2] | IC50 [3] | Ki [3] | IC50 [4] | Ki [4] | IC50 (Melanocortin receptor 4) | IC50 (Melanocortin receptor 5) | IC50 [5] | IC50 (Cytochrome P450 2A6) | Ki (Cytochrome P450 2A6)

O=C(O)c1ccccc1 [BENZOIC ACID]
Not Active: IC50 [1] | IC50 [2] | IC50 [3] | Ki [3] | IC50 [4] | Ki [4] | IC50 (Melanocortin receptor 4) | IC50 (Melanocortin receptor 5) | IC50 [5] | IC50 (Cytochrome P450 2A6) | Ki (Cytochrome P450 2A6)

C[C@H]1C[C@H]2[C@@H]3CCC4=CC(=O)C=C[C@]4(C)[C@@]3(F)[C@@H](O)C[C@]2(C)[C@@]1(O)C(=O)CO [BETAMETHASONE]
Not Active: IC50 [1] | IC50 [2] | IC50 [3] | Ki [3] | IC50 [4] | Ki [4] | IC50 (Melanocortin receptor 4) | IC50 (Melanocortin receptor 5) | IC50 [5] | IC50 (Cytochrome P450 2A6) | Ki (Cytochrome P450 2A6)

NS(=O)(=O)c1cc(C(=O)O)c(NCc2ccco2)cc1Cl [FUROSEMIDE]
Not Active: IC50 [1] | IC50 [2] | IC50 [3] | Ki [3] | IC50 [4] | Ki [4] | IC50 (Melanocortin receptor 4) | IC50 (Melanocortin receptor 5) | IC50 [5] | IC50 (Cytochrome P450 2A6) | Ki (Cytochrome P450 2A6)

O=C(O)COC(=O)Cc1ccccc1Nc1c(Cl)cccc1Cl [ACECLOFENAC]
Not Active: IC50 [1] | IC50 [2] | IC50 [3] | Ki [3] | IC50 [4] | Ki [4] | IC50 (Melanocortin receptor 4) | IC50 (Melanocortin receptor 5) | IC50 [5] | IC50 (Cytochrome P450 2A6) | Ki (Cytochrome P450 2A6)

Cl.NC[C@H]1CC[C@H](C(=O)Oc2ccc(CCC(=O)O)cc2)CC1 [CETRAXATE HYDROCHLORIDE]
Not Active: IC50 [1] | IC50 [2] | IC50 [3] | Ki [3] | IC50 [4] | Ki [4] | IC50 (Melanocortin receptor 4) | IC50 (Melanocortin receptor 5) | IC50 [5] | IC50 (Cytochrome P450 2A6) | Ki (Cytochrome P450 2A6)

C[N+](C)(C)CCOC(N)=O.[Cl-] [CARBACHOL]
Not Active: IC50 [1] | IC50 [2] | IC50 [3] | Ki [3] | IC50 [4] | Ki [4] | IC50 (Melanocortin receptor 4) | IC50 (Melanocortin receptor 5) | IC50 [5] | IC50 (Cytochrome P450 2A6) | Ki (Cytochrome P450 2A6)

CC(C)NCC(O)COc1ccc(CC(N)=O)cc1 (stereo not drawn) [ATENOLOL]
Not Active: IC50 [3] | Ki [3] | IC50 [4] | Ki [4] | IC50 (Melanocortin receptor 4) | IC50 (Melanocortin receptor 5) | IC50 [5] | IC50 (Cytochrome P450 2A6) | Ki (Cytochrome P450 2A6)

COc1ccc(Cl)cc1C(=O)NCCc1ccc(S(=O)(=O)NC(=O)NC2CCCCC2)cc1 [GLYBURIDE]
Not Active: IC50 [1] | IC50 [2] | IC50 [3] | Ki [3] | IC50 [4] | Ki [4] | IC50 (Melanocortin receptor 4) | IC50 (Melanocortin receptor 5) | IC50 [5] | IC50 (Cytochrome P450 2A6) | Ki (Cytochrome P450 2A6)

CCN1CCN(C(=O)N[C@@H](C(=O)N[C@@H]2C(=O)N3[C@@H]2SC(C)(C)[C@@H]3C(=O)O)c2ccccc2)C(=O)C1=O [PIPERACILLIN]
Not Active: IC50 [1] | IC50 [2] | IC50 [3] | Ki [3] | IC50 [4] | Ki [4] | IC50 (Melanocortin receptor 4) | IC50 (Melanocortin receptor 5) | IC50 [5] | IC50 (Cytochrome P450 2A6) | Ki (Cytochrome P450 2A6)

CNC[C@H](O)c1ccc(O)c(O)c1 [EPINEPHRINE]
Not Active: IC50 [1] | IC50 [3] | Ki [3] | IC50 [4] | Ki [4] | IC50 (Melanocortin receptor 4) | IC50 (Melanocortin receptor 5) | IC50 [5] | IC50 (Cytochrome P450 2A6) | Ki (Cytochrome P450 2A6)

CCC1(c2ccccc2)C(=O)NC(=O)NC1=O [PHENOBARBITAL]
Not Active: IC50 [1] | IC50 [2] | IC50 [3] | Ki [3] | IC50 [4] | Ki [4] | IC50 (Melanocortin receptor 4) | IC50 (Melanocortin receptor 5) | IC50 [5] | IC50 (Cytochrome P450 2A6) | Ki (Cytochrome P450 2A6)

O=C(O)CO [GLYCOLIC ACID]
Not Active: IC50 [1] | IC50 [2] | IC50 [3] | Ki [3] | IC50 [4] | Ki [4] | IC50 (Melanocortin receptor 4) | IC50 (Melanocortin receptor 5) | IC50 [5] | IC50 (Cytochrome P450 2A6) | Ki (Cytochrome P450 2A6)

O=C(NCCN1CCOCC1)c1ccc(Cl)cc1 [MOCLOBEMIDE]
Not Active: IC50 [1] | IC50 [2] | IC50 [3] | Ki [3] | IC50 [4] | Ki [4] | IC50 (Melanocortin receptor 4) | IC50 (Melanocortin receptor 5) | IC50 [5] | IC50 (Cytochrome P450 2A6) | Ki (Cytochrome P450 2A6)
